Starred links: 1 amine or outer side, 2 acyl side, 3 side chain; linkers in the order of their positions; H or OH if unused. Non-standard residues stand in square brackets, D forms with d. Residues, ends and D or L forms follow the SMILES beside them. Groups on a side chain read outwards from the residue. *: point of attachment. C20 diacid = O=C(O)CCCCCCCCCCCCCCCCCCC(=O)*; γGlu = O=C(O)[C@H](CCC(=O)[*:2])N[*:1]; Nle = CCCC[C@H](N)C(=O)O; AEEA = NCCOCCOCC(=O)O; Aib = CC(C)(N)C(=O)O
Assays:
[1] = Telemetry in mice (blood pressure, heart frequency); type: in vivo
Experimental: Blood pressure and heart frequency were monitored in freely moving conscious mice by radiotelemetry (PA-C10, Data Sciences). Briefly, analgesia with metamizole (100 mg / kg sc) was performed. For implantation of the telemetry transmitter, the animals were anesthetized with isoflurane with 5% induction and 2% maintenance. The neck was opened in the area of the hyoid bone up to the sternum in the median line. A subcutaneous pocket for the transmitter housing was prepared. The dextra carotid artery was then bluntly exposed and clamped. The […] was pushed caudally into the carotid artery through an incision. The catheter was fixed with a monofilament prolene thread, which also closed the incision. The vessel was also ligated cranially, and the clamp was then removed. The transmitter housing was pushed subcutaneously into a prepared skin pocket on the side opposite the catheter. Finally, the skin wound was closed. Postoperatively, an antibiotic (Ursocyclin® 10, Serumwerk Bernburg AG, Germany; 400 mg/l drinking water for 10 days) and an analgesic (Rimadyl®, 4 mg/kg sc for 3 days) were administered postoperatively.
For arterial blood pressure measurements, the animals were kept in a 12h: 12h day night cycle in a suitable room for at least one day before the first measurement. Animals were administrated s.c once daily in the morning for 7 consecutive days with either 1) Placebo, 2) SEQ ID NO: 3, 10 nmol/kg, 3) SEQ ID NO: 3, 30 nmol/kg or 4) SEQ ID NO: 3, 100 nmol/kg in a cross over design with 2 animals per group (n = 6-8) per week and with 1 week washout between treatments. The telemetric measurement took place over 24 hours.
For statistical analysis, 5 hours means were calculated starting from one hour after dosing and one hour after lights off. All data were evaluated using a 2-way ANOVA with Dunnett's test.

[2] = Telemetry in conscious healthy pigs; type: in vivo; conditions: study A
Experimental: PK/PD/safety properties of SEQ ID NO: 3 were evaluated in freely moving conscious healthy pigs by […].
In study part A, the effects of an ascending dose regime of SEQ ID NO: 3, (0.03, 0.1, 0.3 and 1.0 mg/kg) was compared to placebo. Primary endpoints were blood pressure, heart rate and ECG measurements.
In study part B, the effect of repeated dosing (once weekly, for 4 weeks) with a single dose of SEQ ID NO: 3 (0.3 mg/kg) was compared to placebo. Primary endpoints were blood pressure, heart rate and ECG measurements.

rCRHR1 = target: T1, rCRHR1 (Rattus norvegicus, UniProt P35353); assay: cAMP potency, transiently transfected CHO-K1 cells, rCRHR1; type: cell-based; conditions: transiently transfected CHO-K1, average n=3; read-out: Transient cell system EC50 (nM) rCRH R1
T1 construct: DYK (FLAG); host or cells: CHO-K1, transiently transfected
T1 sequence (P35353 24-415): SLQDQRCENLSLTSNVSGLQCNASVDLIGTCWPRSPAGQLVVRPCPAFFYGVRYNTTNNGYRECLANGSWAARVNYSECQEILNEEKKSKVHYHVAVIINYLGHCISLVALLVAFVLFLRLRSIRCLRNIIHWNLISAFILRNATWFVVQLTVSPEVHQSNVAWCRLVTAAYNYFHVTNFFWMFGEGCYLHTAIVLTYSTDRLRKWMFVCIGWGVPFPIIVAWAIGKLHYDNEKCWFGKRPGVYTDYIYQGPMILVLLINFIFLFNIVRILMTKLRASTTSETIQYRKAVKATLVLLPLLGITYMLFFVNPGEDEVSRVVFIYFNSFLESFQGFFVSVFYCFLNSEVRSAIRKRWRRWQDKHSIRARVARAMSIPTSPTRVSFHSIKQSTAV
Experimental: Selected peptides were tested for potency on different species (mouse, rat, porcine) using transiently transfected CHO-K1 cells using the general procedure.

[3] = conscious healthy mice, s.c. once daily 7 days, 10-100 nmol/kg
[4] = mice, 10 nmol/kg, 1. dark period
[5] = mice, 10 nmol/kg, 2. dark period
[6] = mice, 10 nmol/kg, 3. dark period
[7] = mice, 10 nmol/kg, 4. dark period
[8] = mice, 10 nmol/kg, 5. dark period
[9] = mice, 10 nmol/kg, 6. dark period
[10] = mice, 10 nmol/kg, Baseline dark period
[11] = mice, 30 nmol/kg, 1. dark period
[12] = mice, 30 nmol/kg, 2. dark period
[13] = mice, 30 nmol/kg, 3. dark period
[14] = mice, 30 nmol/kg, 4. dark period
[15] = mice, 30 nmol/kg, 5. dark period
[16] = mice, 30 nmol/kg, 6. dark period
[17] = mice, 30 nmol/kg, Baseline dark period
[18] = mice, 100 nmol/kg, 1. dark period
[19] = mice, 100 nmol/kg, 2. dark period
[20] = mice, 100 nmol/kg, 3. dark period
[21] = mice, 100 nmol/kg, 4. dark period
[22] = mice, 100 nmol/kg, 5. dark period
[23] = mice, 100 nmol/kg, 6. dark period
[24] = mice, 100 nmol/kg, Baseline dark period

## CC[C@H](C)[C@H](N)C(=O)N[C@H](C(=O)N[C@@H](CC(C)C)C(=O)N[C@@H](CO)C(=O)N[C@@H](CC(C)C)C(=O)N[C@@H](CC(=O)O)C(=O)N[C@H](C(=O)N1CCC[C@H]1C(=O)N[C@H](C(=O)NCC(=O)N[C@@H](CC(C)C)C(=O)N[C@@H](CC(C)C)C(=O)N[C@@H](CCC(N)=O)C(=O)N[C@H](C(=O)N[C@@H](CC(C)C)C(=O)N[C@@H](CC(C)C)C(=O)N[C@@H](CCC(=O)O)C(=O)N[C@@H](CCC(N)=O)C(=O)N[C@@H](C)C(=O)N[C@@H](CCCNC(=N)N)C(=O)N[C@@H](C)C(=O)N[C@@H](CCCNC(=N)N)C(=O)N[C@@H](C)C(=O)N[C@@H](C)C(=O)N[C@@H](CCCNC(=N)N)C(=O)N[C@@H](CCC(=O)O)C(=O)N[C@@H](CCC(N)=O)C(=O)N[C@@H](C)C(=O)N[C@@H](CCCCNC(=O)COCCOCCNC(=O)COCCOCCNC(=O)CC[C@H](NC(=O)CC[C@H](NC(=O)CCCCCCCCCCCCCCCCCCC(=O)O)C(=O)O)C(=O)O)C(=O)N[C@H](C(=O)N[C@@H](CC(N)=O)C(=O)N[C@@H](C)C(=O)N[C@@H](CCC(=O)O)C(=O)N[C@H](C(=O)N[C@@H](CC(C)C)C(=O)N[C@@H](C)C(=O)N[C@@H](CCC(=O)O)C(=O)N[C@H](C(N)=O)C(C)C)[C@@H](C)CC)[C@@H](C)O)[C@@H](C)CC)[C@@H](C)CC)C(C)C)C(C)C [SEQ ID NO: 3] (H-IVLSLDVPIGLLQILLEQARARAAREQAK([AEEA-AEEA-γGlu-γGlu-C20 diacid])TNAEILAEV-NH2)
[1]; [3]
  Heart rate: permanent increase
  mean arterial blood pressure: transient and dose-dependent effect
[1]; [4]
  Heart rate: 617.82 ± 17.8 BPM
  Mean arterial pressure: 102.19 ± 4.0 mmHg
[1]; mice, 10 nmol/kg, 1. dose
  Heart rate: 590.34 ± 26.4 BPM
  Mean arterial pressure: 97.23 ± 3.7 mmHg
[1]; [5]
  Heart rate: 576.21 ± 15.5 BPM
  Mean arterial pressure: 102.50 ± 2.9 mmHg
[1]; mice, 10 nmol/kg, 2. dose
  Heart rate: 526.42 ± 18.4 BPM
  Mean arterial pressure: 89.86 ± 2.5 mmHg
[1]; [6]
  Heart rate: 570.38 ± 9.8 BPM
  Mean arterial pressure: 101.92 ± 1.5 mmHg
[1]; mice, 10 nmol/kg, 3. dose
  Heart rate: 517.24 ± 12.1 BPM
  Mean arterial pressure: 89.07 ± 1.9 mmHg
[1]; [7]
  Heart rate: 557.65 ± 11.8 BPM
  Mean arterial pressure: 103.17 ± 1.7 mmHg
[1]; mice, 10 nmol/kg, 4. dose
  Heart rate: 521.88 ± 17.1 BPM
  Mean arterial pressure: 96.25 ± 1.4 mmHg
[1]; [8]
  Heart rate: 548.23 ± 8.3 BPM
  Mean arterial pressure: 105.59 ± 1.5 mmHg
[1]; mice, 10 nmol/kg, 5. dose
  Heart rate: 515.46 ± 3.8 BPM
  Mean arterial pressure: 93.27 ± 1.8 mmHg
[1]; [9]
  Heart rate: 571.18 ± 17.4 BPM
  Mean arterial pressure: 104.54 ± 1.8 mmHg
[1]; mice, 10 nmol/kg, 6. dose
  Heart rate: 538.37 ± 13.6 BPM
  Mean arterial pressure: 99.01 ± 3.0 mmHg
[1]; [10]
  Heart rate: 573.24 ± 24.3 BPM
  Mean arterial pressure: 117.13 ± 6.7 mmHg
[1]; [11]
  Heart rate: 636.57 ± 28.2 BPM
  Mean arterial pressure: 97.14 ± 2.8 mmHg
[1]; mice, 30 nmol/kg, 1. dose
  Heart rate: 637.60 ± 39.0 BPM
  Mean arterial pressure: 83.81 ± 3.9 mmHg
[1]; [12]
  Heart rate: 579.68 ± 23.9 BPM
  Mean arterial pressure: 102.00 ± 4.4 mmHg
[1]; mice, 30 nmol/kg, 2. dose
  Heart rate: 534.13 ± 15.4 BPM
  Mean arterial pressure: 89.68 ± 5.3 mmHg
[1]; [13]
  Heart rate: 621.30 ± 9.5 BPM
  Mean arterial pressure: 106.02 ± 3.9 mmHg
[1]; mice, 30 nmol/kg, 3. dose
  Heart rate: 524.21 ± 17.2 BPM
  Mean arterial pressure: 93.98 ± 4.5 mmHg
[1]; [14]
  Heart rate: 650.03 ± 9.0 BPM
  Mean arterial pressure: 106.67 ± 4.8 mmHg
[1]; mice, 30 nmol/kg, 4. dose
  Heart rate: 576.95 ± 21.0 BPM
  Mean arterial pressure: 94.91 ± 5.0 mmHg
[1]; [15]
  Heart rate: 628.77 ± 14.9 BPM
  Mean arterial pressure: 107.74 ± 5.7 mmHg
[1]; mice, 30 nmol/kg, 5. dose
  Heart rate: 552.59 ± 12.9 BPM
  Mean arterial pressure: 94.31 ± 5.2 mmHg
[1]; [16]
  Heart rate: 625.92 ± 11.6 BPM
  Mean arterial pressure: 109.48 ± 6.3 mmHg
[1]; mice, 30 nmol/kg, 6. dose
  Heart rate: 558.58 ± 15.1 BPM
  Mean arterial pressure: 97.05 ± 6.6 mmHg
[1]; [17]
  Heart rate: 573.65 ± 26.2 BPM
  Mean arterial pressure: 111.32 ± 3.0 mmHg
[1]; [18]
  Heart rate: 593.28 ± 23.1 BPM
  Mean arterial pressure: 86.82 ± 2.2 mmHg
[1]; mice, 100 nmol/kg, 1. dose
  Heart rate: 692.31 ± 7.0 BPM
  Mean arterial pressure: 83.22 ± 5.6 mmHg
[1]; [19]
  Heart rate: 517.97 ± 16.2 BPM
  Mean arterial pressure: 98.30 ± 4.8 mmHg
[1]; mice, 100 nmol/kg, 2. dose
  Heart rate: 507.39 ± 8.1 BPM
  Mean arterial pressure: 89.63 ± 4.9 mmHg
[1]; [20]
  Heart rate: 591.77 ± 7.0 BPM
  Mean arterial pressure: 101.88 ± 5.1 mmHg
[1]; mice, 100 nmol/kg, 3. dose
  Heart rate: 536.49 ± 10.4 BPM
  Mean arterial pressure: 92.77 ± 4.1 mmHg
[1]; [21]
  Heart rate: 606.21 ± 10.1 BPM
  Mean arterial pressure: 103.60 ± 5.3 mmHg
[1]; mice, 100 nmol/kg, 4. dose
  Heart rate: 560.41 ± 16.0 BPM
  Mean arterial pressure: 94.17 ± 3.4 mmHg
[1]; [22]
  Heart rate: 619.17 ± 11.0 BPM
  Mean arterial pressure: 103.68 ± 4.4 mmHg
[1]; mice, 100 nmol/kg, 5. dose
  Heart rate: 554.35 ± 15.3 BPM
  Mean arterial pressure: 91.26 ± 2.0 mmHg
[1]; [23]
  Heart rate: 612.05 ± 11.8 BPM
  Mean arterial pressure: 103.45 ± 3.1 mmHg
[1]; mice, 100 nmol/kg, 6. dose
  Heart rate: 550.11 ± 16.2 BPM
  Mean arterial pressure: 88.76 ± 1.3 mmHg
[1]; [24]
  Heart rate: 581.49 ± 7.7 BPM
  Mean arterial pressure: 108.55 ± 1.2 mmHg
[2]
  Heart rate: remained unaffected
  mean arterial blood pressure: remained unaffected
  relaxation of the left ventricle: not affected
  systemic or cardiac hemodynamics (LV end diastolic pressure, time constant of relaxation, baroreceptor sensitivity, heart rate variability): No relevant findings
[2]; ECG
  PR-Interval: slight decrease
  QT-Interval: unaffected
[2]; ascending s.c. doses 0.03-1.0 mg/kg
  inotropic effects (contractility): long-lasting positive ionotropic effects

## CCCC[C@H](NC(=O)[C@@H](NC(=O)[C@H](CCC(=O)O)NC(=O)[C@H](C)NC(=O)[C@H](CC(N)=O)NC(=O)C(C)(C)NC(=O)[C@H](CCCCNC(=O)COCCOCCNC(=O)COCCOCCNC(=O)CC[C@H](NC(=O)CC[C@H](NC(=O)CCCCCCCCCCCCCCCCCCC(=O)O)C(=O)O)C(=O)O)NC(=O)[C@H](C)NC(=O)[C@H](CCC(N)=O)NC(=O)[C@H](CCC(=O)O)NC(=O)[C@H](CCCNC(=N)N)NC(=O)[C@H](C)NC(=O)[C@H](C)NC(=O)[C@H](CCCNC(=N)N)NC(=O)[C@H](C)NC(=O)[C@H](CCCNC(=N)N)NC(=O)[C@H](C)NC(=O)[C@H](CCC(N)=O)NC(=O)[C@H](CO)NC(=O)[C@H](CC(C)C)NC(=O)[C@H](CC(C)C)NC(=O)[C@@H](NC(=O)[C@H](CCC(N)=O)NC(=O)[C@H](CC(C)C)NC(=O)[C@H](CC(C)C)NC(=O)CNC(=O)[C@@H](NC(=O)[C@@H]1CCCN1C(=O)[C@@H](NC(=O)[C@H](CC(=O)O)NC(=O)[C@H](CC(C)C)NC(=O)[C@H](CO)NC(=O)[C@H](CC(C)C)NC(=O)[C@@H](NC(=O)[C@@H]1CCCN1)C(C)C)C(C)C)[C@@H](C)CC)[C@@H](C)CC)[C@@H](C)CC)C(=O)N[C@@H](C)C(=O)N[C@@H](CCC(=O)O)C(=O)N[C@H](C(N)=O)C(C)C [SEQ ID NO: 238] (H-PVLSLDVPIGLLQILLSQARARAAREQAK([AEEA-AEEA-γGlu-γGlu-C20 diacid])[Aib]NAEI[Nle]AEV-NH2)
rCRHR1
  EC50: > 1000 nM

Reference: patent EP4810052A2, “HCRHR2 SELECTIVE POLYPEPTIDES” (Gubra A/S, priority 2023, dated 2026)
